Experimental data from ChEMBL document CHEMBL1121640, “Analgesic narcotic antagonists. 6. 7 beta, 8 beta-Methano- and 7 beta, 8 beta-epoxydihydrocodeinone” (1981).
Activity calls are given as the source filed them. The calls are words filed in the database; no cut-off is given here.

Experiments:
Mus musculus [1] = assay: Compound was tested for analgesic activity by writhing assay in mouse after subcutaneous administration; format: functional; settings: sc
Rattus norvegicus [2] = assay: Compound was tested for narcotic antagonist activity determined using an intraperitoneal ED80 of morphine in rat tail-flick assay; Inactive at 55 uM/Kg; format: functional, organism-based
Rattus norvegicus [3] = assay: Compound was tested for analgesic activity by tail-flick assay in rat after subcutaneous administration; Inactive at 25 uM/Kg; format: functional, organism-based
Mus musculus [4] = assay: Compound was tested for analgesic activity by writhing assay in mouse after subcutaneous administration; Inactive at 10 uM/Kg; format: functional, organism-based
Rattus norvegicus [5] = assay: Compound was tested for analgesic activity by tail-flick assay in rat after subcutaneous administration; Inactive at 3 uM/Kg; format: functional, organism-based
Rattus norvegicus [6] = assay: Compound was tested for analgesic activity by tail-flick assay in rat after subcutaneous administration; format: functional; settings: sc
Rattus norvegicus [7] = assay: Compound was tested for narcotic antagonist activity determined using an intraperitoneal ED80 of morphine in rat tail-flick assay; format: functional; settings: ip
Rattus norvegicus [8] = assay: Compound was tested for narcotic antagonist activity determined using an intraperitoneal ED80 of morphine in rat tail-flick assay; Inactive at 25 uM/Kg; format: functional, organism-based
Rattus norvegicus [9] = assay: Compound was tested for narcotic antagonist activity determined using an intraperitoneal ED80 of morphine in rat tail-flick assay; Inactive at 50 uM/Kg; format: functional, organism-based
Rattus norvegicus [10] = assay: Compound was tested for analgesic activity by tail-flick assay in rat after subcutaneous administration; Inactive at 65 uM/Kg; format: functional, organism-based
Rattus norvegicus [11] = assay: Compound was tested for analgesic activity by tail-flick assay in rat after subcutaneous administration; Inactive at 30 uM/Kg; format: functional, organism-based
Rattus norvegicus [12] = assay: Compound was tested for analgesic activity by tail-flick assay in rat after subcutaneous administration; Inactive at 32 uM/Kg; format: functional, organism-based
Mus musculus [13] = assay: Compound was tested for analgesic activity by writhing assay in mouse after subcutaneous administration; Inactive at 32 uM/Kg; format: functional, organism-based

Structure (SMILES): COc1ccc2c3c1OC1[C@@H](O)[C@@H]4C[C@@H]4C4C(C2)N(CC2CCC2)CCC314 (stereo partly specified)
- ED50 (Mus musculus [1]): > 55 µmol/kg
- ED50 (Rattus norvegicus [2]): inactive

Structure (SMILES): COc1ccc2c3c1O[C@H]1C(=O)CC(SCCO)C4C(C2)N(C)CCC341 (stereo partly specified)
- ED50 (Mus musculus [1]): > 25 µmol/kg
- ED50 (Rattus norvegicus [3]): inactive

Structure (SMILES): COc1ccc2c3c1O[C@H]1C(=O)CC(CCl)C4C(C2)N(C)CCC341 (stereo partly specified)
- ED50 (Mus musculus [1]): 12.2 µmol/kg
- ED50 (Rattus norvegicus [3]): inactive

Structure (SMILES): COc1ccc2c3c1OC1C(=O)C=CC4C(C2)N(C)CCC314 (stereo unspecified)
- ED50 (Mus musculus [4]): inactive
- ED50 (Rattus norvegicus [5]): inactive

Structure (SMILES): COc1ccc2c3c1OC1C(=O)[C@@H]4C[C@@H]4C4C(C2)N(C)CCC314 (stereo partly specified)
- ED50 (Mus musculus [1]): 0.43 µmol/kg
- ED50 (Rattus norvegicus [6]): 4.7 µmol/kg

Structure (SMILES): Oc1ccc2c(c1)[C@@]13CCCC[C@@]1(O)[C@@H](C2)N(CC1CCC1)CC3 [BUTORPHANOL]
- ED50 (Mus musculus [1]): 0.34 µmol/kg
- ED50 (Rattus norvegicus [7]): 2 µmol/kg

Structure (SMILES): CC(C)=CCN1CC[C@]2(C)c3cc(O)ccc3C[C@H]1[C@H]2C [(+)-PENTAZOCINE]
- ED50 (Mus musculus [1]): 13 µmol/kg
- ED50 (Rattus norvegicus [7]): 36.4 µmol/kg

Structure (SMILES): COc1ccc2c3c1OC1C(=O)[C@@H]4C[C@@H]4C4C(C2)N(CC2CC2)CCC314 (stereo partly specified)
- ED50 (Mus musculus [1]): 9 µmol/kg
- ED50 (Rattus norvegicus [7]): 8.7 µmol/kg

Structure (SMILES): COc1ccc2c3c1O[C@H]1C(=O)C=CC4[C@@H](C2)N(CC2CCC2)CC[C@@]341 (stereo partly specified)
- ED50 (Mus musculus [1]): 20.3 µmol/kg
- ED50 (Rattus norvegicus [8]): inactive

Structure (SMILES): COc1ccc2c3c1OC1C(=O)[C@@H]4C[C@@H]4C4C(C2)N(CC2CCC2)CCC314 (stereo partly specified)
- ED50 (Mus musculus [1]): 12.4 µmol/kg
- ED50 (Rattus norvegicus [9]): inactive

Structure (SMILES): COc1ccc2c3c1OC1[C@@H](O)[C@@H]4C[C@@H]4C4C(C2)N(C)CCC314 (stereo partly specified)
- ED50 (Mus musculus [1]): 1.79 µmol/kg
- ED50 (Rattus norvegicus [10]): inactive

Structure (SMILES): COc1ccc2c3c1O[C@H]1[C@@H](O)CC[C@H]4[C@@H](C2)N(C)CC[C@@]341 [DIHYDROCODEINE]
- ED50 (Mus musculus [1]): 3.8 µmol/kg
- ED50 (Rattus norvegicus [6]): > 22 µmol/kg

Structure (SMILES): COc1ccc2c3c1OC1C(=O)CC(SCCO)C4C(C2)N(CC2CC2)CCC314 (stereo unspecified)
- ED50 (Mus musculus [1]): 3.4 µmol/kg
- ED50 (Rattus norvegicus [7]): > 30 µmol/kg

Structure (SMILES): COc1ccc2c3c1O[C@H]1[C@@H](O)C=C[C@H]4[C@@H](C2)N(C)CC[C@@]341 [CODEINE]
- ED50 (Mus musculus [1]): 10.3 µmol/kg
- ED50 (Rattus norvegicus [6]): 75.1 µmol/kg

Structure (SMILES): COc1ccc2c3c1OC1C34CCN(C)C(C2)C4[C@H]2O[C@H]2[C@@]1(O)OC (stereo partly specified)
- ED50 (Mus musculus [1]): 18 µmol/kg
- ED50 (Rattus norvegicus [11]): inactive

Structure (SMILES): COc1ccc2c3c1OC1[C@@H](O)[C@@H]4O[C@@H]4C4C(C2)N(C)CCC314 (stereo partly specified)
- ED50 (Rattus norvegicus [12]): inactive
- ED50 (Mus musculus [13]): inactive

Structure (SMILES): COc1ccc2c3c1O[C@H]1C(=O)CC[C@H]4[C@@H](C2)N(C)CC[C@]314 [HYDROCODONE]
- ED50 (Mus musculus [1]): 2.4 µmol/kg
- ED50 (Rattus norvegicus [6]): 5.2 µmol/kg

Structure (SMILES): COc1ccc2c3c1OC1C(=O)[C@@H]4O[C@@H]4C4C(C2)N(C)CCC314 (stereo partly specified)
- ED50 (Mus musculus [13]): inactive
- ED50 (Rattus norvegicus [6]): > 30 µmol/kg
